Data taken from patent US11826402B2, “Combination therapy involving antibodies against claudin 18.2 for treatment of metastatic pancreatic adenocarcinoma” (Astellas Pharma Inc., priority 2013, dated 2023).
“Also recorded” adds a separate entry of the source.

How the values were obtained:
[1] = system: CLDN18.2 expression in DANG; assay: Effect of chemotherapeutic agents on CLDN18.2 expression (RT-PCR, western blot); format: cell-based, human; conditions: DANG pretreated 2 days, Gem 1 ng/ml or Gem 1 ng/ml+Ox 10 ng/ml, versus untreated
Protocol: FIGS. 30A and 30B show the effect of treatment with chemotherapeutic agents on CLDN18.2 expression (RNA).
Actin was used to show equal loading of proteins.
The area of each bar is divided to indicate the percentage of cells in G0/G1, S and G2 phase.
For RNA isolation from pancreatic cancer cell lines, cells were seeded in 10 cm dishes and grown for 2-3 days until 80% confluent. RNA was isolated according to instructions supplied with the RNeasy® Mini Kit (Qiagen). cDNA preparation was performed following manufacturers instructions provided with the SuperScript® III First Strand kit (Invitrogen). RNA and cDNA samples were stored at −80° C.
Quantitative analysis of CLDN18.2 transcripts was performed by amplifying oligo(dT)-primed cDNAs in a 40 cycle PCR reaction using PCR primers #5054s (5′-[…]-3′) and #5060 as (5′-[…]-3′) differentiating between CLDN18.1 and CLDN18.2 isoforms. The reaction was prepared with SYBR Green (QuantiTect SYBR Green PCR Kit, Qiagen), which intercalates in double stranded DNA. […]
For isolation of proteins of pancreatic cancer cell lines, cells were seeded in 10 cm dishes and grown for 2-3 days until 80% confluent. […] Protein concentration was measured in a spectrophotometer (Absorption at 280 nm) and samples were stored at −80° C. until use. […]

AsPC1 = assay: IMAB362-mediated ADCC assay; format: cell-based, human; conditions: at least 2 donors
[2] = system: LVT pancreatic cancer cell lines ectopically expressing CLDN18.2; assay: IF staining with IMAB362 under native conditions; format: binding, human; conditions: 8 LVT pancreatic cancer cell lines
Source text: IF analysis of pancreatic cancer cell lines (FIGS. 16A, 16B, 16D and 16E), lentivirally transduced pancreas cell lines (FIGS. 16G-16L) and KATO-III gastric cancer control cells (FIGS. 16C and 16F) expressing CLDN18.2. […] DAPI was used to stain the nuclei. Exposure times are indicated in each panel. FIG. 16G: BxPC3-LVT; FIG. 16H: CAPAN1-LVT; FIG. 16I: DANG-LVT; FIG. 16J: MiaPaCa2-LVT; FIG. 16K: Patu8902-LVT; FIG. 16L: Suit2-LVT.

SW1990 = assay: IMAB362-mediated ADCC assay; format: cell-based, human; conditions: at least 2 donors
[3] = system: MiaPaCa-2-LVT, Suit2-LVT and CAPAN1-LVT; assay: IMAB362-mediated CDC assay, LVT cell lines; format: cell-based, human
Protocol: CDC was performed as follows.
CHO-K1 cells stably transfected with CLDN18.2 (p740) and luciferase were used as assay positive controls in each assay (FIG. 23A). […] This is most likely due to the fact that neoplastic cells over-express one or more membrane bound complement inhibitory proteins (e.g. CD46, CD55 and CD59) (Geis et al., Curr Cancer Drug Targets, 2010 10:922-931). However, if expression of these inhibitory proteins on tumor cells affect clinical outcome of an antibody therapy is still contradictory (Dzietczenia et al. Med. Oncol. 2010, 27:743-6; Weng and Levy at al., Blood 2001 98:1352-7). In addition to the endogenous cell lines, all the LVT cell lines were tested in CDC assays.

HUP-T4 = assay: IMAB362-mediated ADCC assay; format: cell-based, human; conditions: at least 2 donors
NUGC-4 = assay: IMAB362-induced ADCC on gastric cancer cells, also with ZA/IL-2 cultivated PBMCs; format: cell-based, human
Protocol: Specific killing was determined in luciferase assays.

KCI-MOH = assay: IMAB362-mediated ADCC assay; format: cell-based, human; conditions: at least 2 donors

With Nc1ccn([C@@H]2O[C@H](CO)[C@@H](O)C2(F)F)c(=O)n1 [gemcitabine, 4-amino-1-(2-deoxy-2,2-difluoro-β-D-erythro-pentofuranosyl)pyrimidin-2(1H)-one] the “mRNA and protein levels of CLDN18.2” value [1] was “increased; also recorded: upregulation” and the “mRNA and protein levels of CLDN18.2” value ([1]; listed as Gem) was “upregulation”.

With “IMAB362: chimeric IgG1 antibody directed against CLDN18.2, developed by Ganymed Pharmaceuticals AG” the “ADCC EC50” value (AsPC1) was “n.m”, the “ADCC Max. lysis” value (AsPC1) was “n.m” and the “membrane staining (IF, native staining protocol)” value [2] was “clear membrane staining”. For the same compound, the “ADCC EC50” value (SW1990) was “n.m”, the “ADCC Max. lysis” value (SW1990) was “n.m” and the “CDC EC50” value ([3]; BxPC3 LVT) was “n.m”. For the same compound, the “CDC Max. lysis” value ([3]; BxPC3 LVT) was “n.m”, the “CDC EC50” value ([3]; CAPAN1-LVT) was 0.9701 µg/mL and the “CDC Max. lysis” value ([3]; CAPAN1-LVT) was 79.1%. The “CDC EC50” value ([3]; DANG-LVT) was “n.m”, the “CDC Max. lysis” value ([3]; DANG-LVT) was “n.m” and the “CDC EC50” value ([3]; HPAC-LVT) was “n.m”. The “CDC Max. lysis” value ([3]; HPAC-LVT) was “n.m”, the “CDC EC50” value ([3]; MiaPaCa2-LVT) was 0.34 µg/mL and the “CDC Max. lysis” value ([3]; MiaPaCa2-LVT) was 78.4%. The “CDC EC50” value ([3]; Patu8902-LVT) was 0.291 µg/mL, the “CDC Max. lysis” value ([3]; Patu8902-LVT) was 76.7% and the “CDC EC50” value ([3]; Suit2-LVT) was “n.m”. The “CDC Max. lysis” value ([3]; Suit2-LVT) was “n.m”, the “CDC EC50” value ([3]; YAPC-LVT) was “n.m” and the “CDC Max. lysis” value ([3]; YAPC-LVT) was “n.m”. The “ADCC EC50” value (HUP-T4) was “n.m”, the “ADCC Max. lysis” value (HUP-T4) was “n.m” and the “ADCC activity with ZA/IL-2 cultivated PBMCs” value (NUGC-4; PBMCs cultivated 14 days with ZA/IL-2) was “Strong IMAB362-dependent ADCC activity”. The “maximum lysis rates (ADCC)” value (NUGC-4; up to 200 μg/ml, 24 hours, human PBMC E:T 40:1) was 80-100% and the “ADCC EC50” value (KCI-MOH) was “n.m”.
